# In PubChem BioAssay (NCI):
#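 Briefly, cells in 96-well plates were exposed to five compound concentrations for 48 h, and endpoints were estimated by linear interpolation. The concentration for 50% growth inhibition is given as GI50. Definition used: TGI = concentration required for complete inhibition of growth.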
# Legend:
# Experiment in all cases: DTP human tumour cell line panel, 48 h
# UACC-257 melanoma = tested on: UACC-257 melanoma
# SK-OV-3 ovarian = tested on: SK-OV-3 ovarian
# HCC-2998 colon = tested on: HCC-2998 colon
# U251 CNS = tested on: U251 CNS
# CCRF-CEM leukemia = tested on: CCRF-CEM leukemia
# DU-145 prostate = tested on: DU-145 prostate
# SN12C renal = tested on: SN12C renal
# KM12 colon = tested on: KM12 colon
# 786-0 renal = tested on: 786-0 renal
# M14 melanoma = tested on: M14 melanoma
# NCI-H522 lung = tested on: NCI-H522 lung
# SK-MEL-5 melanoma = tested on: SK-MEL-5 melanoma
# HL-60(TB) leukemia = tested on: HL-60(TB) leukemia
# MDA-MB-435 = tested on: MDA-MB-435
# TK-10 renal = tested on: TK-10 renal
# SF-295 CNS = tested on: SF-295 CNS
# A549 NSCLC = tested on: A549 NSCLC
# HOP-92 NSCLC = tested on: HOP-92 NSCLC
# RPMI-8226 leukemia = tested on: RPMI-8226 leukemia
# ACHN renal = tested on: ACHN renal
# PC-3 prostate = tested on: PC-3 prostate
# BT-549 breast = tested on: BT-549 breast
# HS 578T breast = tested on: HS 578T breast
# SR leukemia = tested on: SR leukemia
# MCF7 breast = tested on: MCF7 breast
# OVCAR-3 ovarian = tested on: OVCAR-3 ovarian
# NCI/ADR-RES ovarian = tested on: NCI/ADR-RES ovarian
# SW-620 colon = tested on: SW-620 colon
# A498 renal = tested on: A498 renal
smiles,measurement,setting,value
CCCCSc1nc(Nc2ccc(/C(C)=N/NC(N)=S)cc2)c(C#N)c(-c2ccc(F)cc2)n1,GI50,UACC-257 melanoma,15.4 µM
same,TGI,UACC-257 melanoma,61.8 µM
same,GI50,SK-OV-3 ovarian,3.54 µM
same,TGI,SK-OV-3 ovarian,9.87 µM
same,GI50,HCC-2998 colon,3.29 µM
same,TGI,HCC-2998 colon,18.7 µM
same,GI50,U251 CNS,1.24 µM
same,TGI,U251 CNS,3.83 µM
same,GI50,CCRF-CEM leukemia,0.814 µM
same,TGI,CCRF-CEM leukemia,> 100 µM
same,GI50,DU-145 prostate,3.12 µM
same,TGI,DU-145 prostate,49.8 µM
same,GI50,SN12C renal,11.8 µM
same,TGI,SN12C renal,57 µM
same,GI50,KM12 colon,15.9 µM
same,TGI,KM12 colon,> 100 µM
same,GI50,786-0 renal,1.69 µM
same,TGI,786-0 renal,3.88 µM
same,GI50,M14 melanoma,3.52 µM
same,TGI,M14 melanoma,19.6 µM
same,GI50,NCI-H522 lung,1.92 µM
same,TGI,NCI-H522 lung,7.05 µM
same,GI50,SK-MEL-5 melanoma,2.3 µM
same,TGI,SK-MEL-5 melanoma,12.5 µM
same,GI50,HL-60(TB) leukemia,> 100 µM
same,TGI,HL-60(TB) leukemia,> 100 µM
same,GI50,MDA-MB-435,4.13 µM
same,TGI,MDA-MB-435,24.8 µM
same,GI50,TK-10 renal,2.92 µM
same,TGI,TK-10 renal,7.08 µM
same,GI50,SF-295 CNS,1.21 µM
same,TGI,SF-295 CNS,2.75 µM
same,GI50,A549 NSCLC,2.35 µM
same,TGI,A549 NSCLC,7.57 µM
same,GI50,HOP-92 NSCLC,1.23 µM
same,TGI,HOP-92 NSCLC,4.01 µM
same,GI50,RPMI-8226 leukemia,3.4 µM
same,TGI,RPMI-8226 leukemia,> 100 µM
same,GI50,ACHN renal,0.858 µM
same,TGI,ACHN renal,4.37 µM
same,GI50,PC-3 prostate,1.42 µM
same,TGI,PC-3 prostate,7.02 µM
same,GI50,BT-549 breast,6.6 µM
same,TGI,BT-549 breast,28.1 µM
same,GI50,HS 578T breast,1.71 µM
same,TGI,HS 578T breast,8.14 µM
same,GI50,SR leukemia,8.62 µM
same,TGI,SR leukemia,> 100 µM
same,GI50,MCF7 breast,0.893 µM
same,TGI,MCF7 breast,11.4 µM
same,GI50,OVCAR-3 ovarian,2.57 µM
same,TGI,OVCAR-3 ovarian,10.1 µM
same,GI50,NCI/ADR-RES ovarian,1.34 µM
same,TGI,NCI/ADR-RES ovarian,5.72 µM
same,GI50,SW-620 colon,2.7 µM
same,TGI,SW-620 colon,42.1 µM
same,GI50,A498 renal,2.7 µM
same,TGI,A498 renal,7.1 µM
